Format in all cases: cell-based
Test [1] deals with Serratia marcescens. In words: MIC Agar Dilution Test, Serratia marcescens. From the text: (§1) The following strains of microorganisms were used in Minimum Inhibitory Concentration (MIC) tests for phenyl 2-acetoxyethanoic acid in this example and for benzoyl peroxide, chlorhexidine gluconate and triclosan in the following examples. In total, five strains were used for S. aureus, five strains were used for S. epidermidis, two strains were used for M. sedentarius, three strains were used for M. luteus, two strains were used for B. epidermis, three strains were used for C. minutissium, one strain was used for S. marcescens, three strains were used for P. aeruginosa, four strains were used for E. coli, and thirty-two strains were used for P. acnes.
(§2) Antimicrobial effects were determined based on MIC Agar Dilution Test utilizing Trypticase Soy Agar II (BBL) incorporation plates with and without 10% intralipid (Kabi Pharmacia Inc.). Initially, phenyl 2-acetoxyethanoic acid was prepared as a 2 mg/ml (0.2%) solution in water. This solution with serial dilution was incorporated into the test agar plates. The MIC test gave similar results when the same species but a different strain was used.
(§3) Under the same test conditions described in Example 1, benzoyl peroxide was prepared as a 2.5 mg/ml (0.25%) solution in water. This solution with serial dilution was incorporated into the test agar plates. Typical test results are shown as follows.
(§4) Under the same test conditions described in Example 1, chlorhexidine gluconate was prepared as a 2 mg/ml (0.2%) solution in water. This solution with serial dilution was incorporated into the test agar plates. Typical test results are shown as follows.
(§5) Under the same test conditions described in Example 1, triclosan was prepared as a 10 mg/ml (1%) solution in water. This solution with serial dilution was incorporated into the test agar plates. Typical test results are shown as follows.
(§6) Ten different species of bacteria were used in Minimum Inhibitory Concentration (MIC) tests. The bacteria include S. aureus, S. epidermidis,M. sedentarius, M. luteus, B. epidermis, C. minutissium, S. marcescens, P. aeruginosa, E. coli, and P. acnes. In addition various sources and strains of these bacteria were also included in the tests, and up to 32 different strains of P. acnes were used.
(§7) The test substance selected from phenyl 2-acetoxyethanoic acid, benzoyl peroxide, chlorhexidine gluconate and triclosan was dissolved in water, and the solution with serial dilution was incorporated into the test agar plates. The plates containing different concentrations of test substance were inoculated with a strain of bacterium. MIC is defined as the lowest concentration of the test substance in the plate in which there is no growth of the microorganism.
(In general: Agar dilution tests growth on a series of plates holding different concentrations.)

Test [2] deals with Escherichia coli. Put plainly: MIC Agar Dilution Test, Escherichia coli.
Text: as §1, §2, §3, §4, §5, §6, §7

Test [3] relates to Brevibacterium epidermis. Put plainly: MIC Agar Dilution Test, Brevibacterium epidermis.
Text: as §1, §2, §3, §4, §5, §6, §7

In test [4] the test system is Staphylococcus epidermidis. In words: MIC Agar Dilution Test, Staphylococcus epidermidis.
Text: as §1, §2, §3, §4, §5, §6, §7

Test [5] relates to Micrococcus luteus. In words: MIC Agar Dilution Test, Micrococcus luteus.
Text: as §1, §2, §3, §4, §5, §6, §7

Test [6] concerns Micrococcus sedentarius. In words: MIC Agar Dilution Test, Micrococcus sedentarius. The settings on record: Kytococcus sedentarius.
Text: as §1, §2, §3, §4, §5, §6, §7

Test [7] deals with ten different species of bacteria. In words: MIC Agar Dilution Test, panel of ten bacteria.
Text: as §1, §2, §3, §4, §5
In order to determine the antimicrobial effect of an aryl 2-acetoxyethanoicacid, a standard test method of Minimum Inhibitory Concentration (MIC) against the growth of 10 bacteria was used. To determine a prophylactic effect against the development of, as well as a topical effect in the treatment of, body foul door, eleven human subjects participated in this study. More than twenty human subjects participated in a study to determine whether the compositions containing an aryl 2-acetoxyethanoic acid were therapeutically effective for topical treatment of folliculitis and other skin lesions, nail infections and mucosal infections caused by microbial infections. Scientific and test results are overviewed as follows.
as §6, §7

The subject of test [8] is Pseudomonas aeruginosa. In words: MIC Agar Dilution Test, Pseudomonas aeruginosa.
Text: as §1, §2, §3, §4, §5, §6, §7

The subject of test [9] is Corynebacterium minutissium. Put plainly: MIC Agar Dilution Test, Corynebacterium minutissium.
Text: as §1, §2, §3, §4, §5, §6, §7

Test [10] deals with Propionibacterium acnes. Put plainly: MIC Agar Dilution Test, Propionibacterium acnes. As to conditions: Cutibacterium acnes.
Text: as §1, §2, §3, §4, §5, §6, §7

Test [11] relates to Staphylococcus aureus. Put plainly: MIC Agar Dilution Test, Staphylococcus aureus.
Text: as §1, §2, §3, §4, §5, §6, §7

Where [12] appears, read: S. marcescens, 10% intralipid, read-out: MIC Lipid.
[13] abbreviates: S. marcescens, no lipid, read-out: MIC No Lipid.
Where [14] appears, read: E. coli, 10% intralipid, read-out: MIC Lipid.
Setting [15] is: E. coli, no lipid, read-out: MIC No Lipid.
The mark [16] stands for this setting: B. epidermis, 10% intralipid, read-out: MIC Lipid.
Where [17] appears, read: B. epidermis, no lipid, read-out: MIC No Lipid.
[18] abbreviates: S. epidermidis, 10% intralipid, read-out: MIC Lipid.
The mark [19] stands for this setting: S. epidermidis, no lipid, read-out: MIC No Lipid.
Where [20] appears, read: M. luteus, 10% intralipid, read-out: MIC Lipid.
[21] abbreviates: M. luteus, no lipid, read-out: MIC No Lipid.
Where [22] appears, read: M. sedentarius, 10% intralipid, read-out: MIC Lipid.
The mark [23] stands for this setting: M. sedentarius, no lipid, read-out: MIC No Lipid.
Setting [24] is: in the absence of lipid materials, triclosan: excluding S. marcescens and P. aeruginosa.
Setting [25] is: in the presence of 10% lipid materials, benzoyl peroxide: excluding S. marcescens and P. aeruginosa.
Where [26] appears, read: P. aeruginosa, 10% intralipid, read-out: MIC Lipid.
Setting [27] is: P. aeruginosa, no lipid, read-out: MIC No Lipid.
[28] abbreviates: C. minutissium, 10% intralipid, read-out: MIC Lipid.
Setting [29] is: C. minutissium, no lipid, read-out: MIC No Lipid.
[30] abbreviates: P. acnes, 10% intralipid, read-out: MIC Lipid.
Setting [31] is: P. acnes, no lipid, read-out: MIC No Lipid.
Setting [32] is: S. aureus, 10% intralipid, read-out: MIC Lipid.
Where [33] appears, read: S. aureus, no lipid, read-out: MIC No Lipid.

≈ marks a conversion by molar mass, not a printed value. Entries after “also recorded” stand apart in the source; their conditions may differ. Read-outs that look alike come from different tables or passages of the source.

Turning to `O=C(OOC(=O)c1ccccc1)c1ccccc1` [benzoyl peroxide], the MIC in test [1] (setting [12]) worked out at 1250 µg/mL (≈ 5.16 mM); in test [1] (setting [13]), 72500 µg/mL (≈ 299 mM); in test [2] (setting [14]), 1250 µg/mL (≈ 5.16 mM); in [2] (setting [15]), 2500 µg/mL (≈ 10.3 mM); in test [3] (setting [16]), 1250 µg/mL (≈ 5.16 mM); in [3] (setting [17]) it was 2500 µg/mL (≈ 10.3 mM). Further, the MIC amounted to 1250 µg/mL (≈ 5.16 mM) in test [4] (setting [18]); 2500 µg/mL (≈ 10.3 mM) in test [4] (setting [19]); 650 µg/mL (≈ 2.68 mM) in test [5] (setting [20]); 2500 µg/mL (≈ 10.3 mM) in [5] (setting [21]); 625 µg/mL in test [5] (in the presence of 10% lipid materials (printed M. lutens), read-out: concentration showing inhibitory effects against M. luteus); 650 µg/mL (≈ 2.68 mM) in [6] (setting [22]). Moreover, the MIC turned out to be 2500 µg/mL (≈ 10.3 mM) in test [6] (setting [23]); 625 µg/mL in test [6] (in the presence of 10% lipid materials, read-out: concentration showing inhibitory effects against M. sedentarius); 1250 µg/mL (≈ 5.16 mM) in test [8] (setting [26]); 72500 µg/mL (≈ 299 mM) in [8] (setting [27]); 1250 µg/mL (≈ 5.16 mM) in test [9] (setting [28]); 2500 µg/mL (≈ 10.3 mM) in test [9] (setting [29]). For the same molecule, the MIC worked out at 625 µg/mL (≈ 2.58 mM) in test [10] (setting [30]); 2500 µg/mL (≈ 10.3 mM) in test [10] (setting [31]); 625 µg/mL in test [10] (in the presence of 10% lipid materials, read-out: concentration effective against P. acnes); 1250 µg/mL (≈ 5.16 mM) in test [11] (setting [32]); 2500 µg/mL (≈ 10.3 mM) in [11] (setting [33]). Moreover, the “effect against the growth of the bacteria” value (“effect against the growth” for short) in test [7] (setting [24]) is recorded as “not effective against the growth of all the bacteria tested”; in test [7] (setting [25]) it was “moderately effective”.

Regarding `N=C(NCCCCCCNC(=N)NC(=N)Nc1ccc(Cl)cc1)NC(=N)Nc1ccc(Cl)cc1` [chlorhexidine gluconate], the MIC in [1] (setting [12]) was > 2000 µg/mL; in test [1] (setting [13]), 1000 µg/mL; in test [2] (setting [14]), > 2000 µg/mL; in test [2] (setting [15]), 250 µg/mL; in test [3] (setting [16]), > 2000 µg/mL; in test [3] (setting [17]), 250 µg/mL. For the same molecule, the MIC is > 2000 µg/mL in test [4] (setting [18]); 125 µg/mL in test [4] (setting [19]); > 2000 µg/mL in test [5] (setting [20]); 125 µg/mL in [5] (setting [21]); > 2000 µg/mL in test [6] (setting [22]); 125 µg/mL in [6] (setting [23]). Moreover, the MIC is > 2000 µg/mL in test [8] (setting [26]); 1000 µg/mL in [8] (setting [27]); > 2000 µg/mL in test [9] (setting [28]); 125 µg/mL in test [9] (setting [29]); > 2000 µg/mL in test [10] (setting [30]); 62.5 µg/mL in [10] (setting [31]). For the same molecule, the MIC in [11] (setting [32]) was > 2000 µg/mL; in test [11] (setting [33]), 125 µg/mL. In addition, the “effect against the growth” value in [7] (setting [24]) is recorded as “effective against various bacteria”; in [7] (setting [25]), “totally ineffective; also recorded: not effective against the growth of all the bacteria tested; also recorded: ineffective against most microorganisms”.

Regarding `Oc1cc(Cl)ccc1Oc1ccc(Cl)cc1Cl` [triclosan], the MIC in test [1] (read-out: MIC Lipid) is > 10000 µg/mL; in test [1] (read-out: MIC No Lipid), > 10000 µg/mL; in [2] (read-out: MIC Lipid) it was > 10000 µg/mL; in [2] (read-out: MIC No Lipid), 156 µg/mL (≈ 0.539 mM); in test [3] (read-out: MIC Lipid), > 10000 µg/mL; in test [3] (read-out: MIC No Lipid), 156 µg/mL (≈ 0.539 mM). Besides, the MIC is 5000 µg/mL (≈ 17.3 mM) in [4] (read-out: MIC Lipid); 156 µg/mL (≈ 0.539 mM) in test [4] (read-out: MIC No Lipid); > 10000 µg/mL in [5] (read-out: MIC Lipid); 156 µg/mL (≈ 0.539 mM) in test [5] (read-out: MIC No Lipid); > 10000 µg/mL in test [6] (read-out: MIC Lipid); 156 µg/mL (≈ 0.539 mM) in [6] (read-out: MIC No Lipid). Also, the MIC in [7] (read-out: concentration found effective against the bacteria tested) was 156 µg/mL (≈ 0.539 mM); in test [8] (read-out: MIC Lipid), > 10000 µg/mL; in test [8] (read-out: MIC No Lipid) it was > 10000 µg/mL; in test [9] (read-out: MIC Lipid), > 10000 µg/mL; in [9] (read-out: MIC No Lipid) it was 156 µg/mL (≈ 0.539 mM); in test [10] (read-out: MIC Lipid), > 10000 µg/mL. For the same molecule, the MIC in test [10] (read-out: MIC No Lipid) was 156 µg/mL (≈ 0.539 mM); in test [11] (read-out: MIC Lipid) it was > 10000 µg/mL; in test [11] (read-out: MIC No Lipid) it was 156 µg/mL (≈ 0.539 mM). Further, the “effect against the growth” value in test [7] (setting [24]) is given as “effective against various bacteria”; in test [7] (setting [25]), “ineffective; also recorded: not effective against the growth of all the bacteria tested; also recorded: ineffective against most microorganisms”.

The values above are taken from patent publication US6046238A, “Method for treating or preventing the spread of acne vulgaris” (TriStrata, Inc., priority 1999, dated 2000).
